Assay results taken from patent US20170189485A1, “MODULATION OF ESTROGEN RECEPTOR-RELATED RECEPTOR GAMMA (ERR GAMMA) AND USES THEREFOR” (Salk Institute for Biological Studies, priority 2011, published 2017).
“Also recorded” adds a separate entry of the source.

Columns and labels:
ERRβ = biological target: T1, ERRβ (Homo sapiens, UniProt O95718); conditions: cited from earlier work
T1 sequence (O95718 1-433): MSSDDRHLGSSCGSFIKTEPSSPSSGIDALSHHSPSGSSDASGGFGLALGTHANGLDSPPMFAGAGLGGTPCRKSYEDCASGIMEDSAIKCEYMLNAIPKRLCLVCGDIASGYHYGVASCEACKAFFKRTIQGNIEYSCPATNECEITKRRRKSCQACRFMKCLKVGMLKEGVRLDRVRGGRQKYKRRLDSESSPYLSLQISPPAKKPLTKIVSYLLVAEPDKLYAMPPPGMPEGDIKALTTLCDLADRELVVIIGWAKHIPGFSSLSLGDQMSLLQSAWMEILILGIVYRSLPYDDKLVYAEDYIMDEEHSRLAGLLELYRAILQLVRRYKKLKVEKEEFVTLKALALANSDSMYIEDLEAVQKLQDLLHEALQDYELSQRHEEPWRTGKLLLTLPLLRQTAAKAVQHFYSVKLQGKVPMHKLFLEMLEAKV

ERRγ = biological target: T2, ERRγ (Homo sapiens, UniProt P62508); conditions: cited from earlier work
T2 sequence (P62508 1-458): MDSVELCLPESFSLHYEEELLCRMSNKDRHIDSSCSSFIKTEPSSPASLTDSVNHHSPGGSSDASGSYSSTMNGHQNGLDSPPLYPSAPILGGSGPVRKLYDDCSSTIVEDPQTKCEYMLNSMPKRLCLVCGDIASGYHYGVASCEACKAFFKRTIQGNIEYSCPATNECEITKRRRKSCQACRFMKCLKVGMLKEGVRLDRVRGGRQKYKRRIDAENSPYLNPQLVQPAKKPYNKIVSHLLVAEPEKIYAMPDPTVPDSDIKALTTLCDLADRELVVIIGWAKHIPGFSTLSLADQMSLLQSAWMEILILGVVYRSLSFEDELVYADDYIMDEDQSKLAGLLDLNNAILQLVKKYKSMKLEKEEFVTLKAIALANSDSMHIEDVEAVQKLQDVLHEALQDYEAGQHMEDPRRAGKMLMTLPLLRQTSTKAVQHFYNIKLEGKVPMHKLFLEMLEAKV

type II muscle = assay: AICAR treatment of mice, SDH staining of muscle cryo-sections; assay type: in vivo; conditions: AICAR 500 mg/kg/day for 4 weeks, intra-peritoneally, male C57Bl/6J mice
Protocol: Drug treatment. Male C57Bl/6J mice (8 weeks old) were intra-peritoneally injected with vehicle or AICAR (500 mg/kg/day), as previously described (Narkar et al., 2008).
Succinate Dehydrogenase (SDH) Staining. SDH staining was performed on […] cryo-sections of gastrocnemius. Briefly, WT and transgenic sections were incubated at 37° C. for 10 min in substrate buffer [0.2M Phosphate buffer containing sodium succinate (250 mg/10 ml) and NBT (10 mg/10 ml)]. Following incubation, sections were washed three times with water following by two washes each with increasing and decreasing concentrations of acetone (30%, 60%, 90%). Finally, the sections were washed three times with water and mounted in an aqueous mounting media.

[1] = dose 500 mg/kg/day; cited from earlier work
AMPK = conditions: dose 500 mg/kg/day; cited from earlier work

CC(C)c1ccc(/C=N/NC(=O)c2ccc(O)cc2)cc1 [GSK4716]
agonist of ERRβ (ERRβ): agonists

CCN(CC)c1ccc(C=NNC(=O)c2ccc(O)cc2)cc1 (stereo in doubt) [GSK9089, N-[(E)-[4-(diethylamino)phenyl]methylideneamino]-4-hydroxybenzamide]
agonist of ERRγ (ERRγ): agonists | agonist of ERRβ (ERRβ): agonists

Nc1ccc(C(=O)N/N=C/c2ccc(/N=N/c3ccccc3)cc2)cn1 [E6]
selectivity for ERRγ over ERRα and β (ERRγ; screening assay of Kim et al. 2009): selective for ERRγ but not ERRα and β

NC(=O)c1ncn([C@@H]2O[C@H](CO)[C@@H](O)[C@H]2O)c1N [AICAR]
aerobic transformation of skeletal muscle (SDH staining) (type II muscle): able to direct aspects of skeletal muscle transformation in a fashion similar to ERRγ; also recorded: triggers aerobic transformation of type II muscle | aerobic performance [1]: improve aerobic performance | stimulation of AMPK in anaerobic muscle (AMPK): stimulate AMPK in anaerobic muscle
